Data reported in PMC11483813, “Bombesin-Targeted Delivery of β-Carboline-Based Ir(III) and Ru(II) Photosensitizers for a Selective Photodynamic Therapy of Prostate Cancer” (Inorganic Chemistry, 2024).
Residues, ends and D or L forms follow the SMILES beside them. *: point of attachment. X1 = Cn1c2ccccc2c2ccnc(-c3ccc(/C=C/C(=O)*)cn3)c21

Assays:
PC-3 cells [1] = test: Cellular internalization by ICP-MS; assay type: cell-based, human; settings: 5 μM, 4 h
Method: Figure 10 Cellular internalization. PC-3 cells were incubated for 4 h with the indicated compounds at 5 μM, and the Ir (A) or Ru (B) content per 1 × 10^6 cells was quantified by ICP-MS. Bars represent the mean value of three replicates ± SD. * p < 0.05; *** p < 0.001 versus Ir-H or Ru-H.
The intracellular accumulation of the PSs is a crucial requirement to achieve a photocytotoxic effect. This is because the ROS generated by the PSs have a very limited radius of action and only operate in the cellular compartment or organelle in which they are generated.[57] […] This further emphasizes the importance of cellular uptake for their cytotoxic activity. Additionally, when using tumor-targeting ligands, such as BN3, the intracellular uptake of the metallopeptides depends on the level of expression of the target receptor on the cell surface and the internalization mechanism, which may differ from that of the free complex. Therefore, the internalization of complexes Ir-H, Ir-Me, Ru-H, and Ru-Me and of metallopeptides Ir-BN and Ru-BN in PC-3 cells was determined by quantifying the intracellular metal content by inductively coupled plasma mass spectrometry (ICP-MS) (Figure 10). After 4 h treatment with the compounds at 5 μM, the amount of Ir in cells exposed to Ir-H was 3.1 ± 0.7 ng per million cells, whereas in the case of its conjugated form Ir-BN, it increased 5.7-fold to 17.9 ± 5.6 ng per million cells. […]
PC-3 cells were seeded in 6-well plates at a density of 2 million cells/well. […] The number of cells in each sample was determined using a Novocyte flow cytometer (Agilent Technologies). The samples were centrifuged to obtain the cell pellet, and the complex content was subsequently assessed using inductively coupled plasma mass spectrometry (ICP-MS). […] The Ir or Ru content was analyzed in Agilent 7500c ICP-MS located at the Technical Research Services of the University of Girona. […] The isotopes detected were ^193Ir, ^101Ru, and ^103Rh, respectively. […] Three independent samples were analyzed for each complex.

PC-3 cells [2] = test: Superoxide anion generation (ROS-ID Superoxide Detection Kit); assay type: cell-based, human; settings: IC50,light 4 h, blue light 1 h
Method: The photocytotoxic effects of the complexes and metallopeptides were further elucidated by evaluating their ability to photogenerate ROS at the cellular level. PC-3 cells were treated with the compounds at the respective IC50,light and irradiated with blue light. Subsequently, ROS generation was measured using the 2′,7′-dichlorodihydrofluorescein diacetate (H2DCFDA) probe, which diffuses into cells and is oxidized by ROS to produce a green fluorescent signal. […] Nevertheless, to ascertain the potential contributions of other ROS to the photocytotoxic activity, the capacity of the compounds to undergo type I PDT processes, resulting in the production of superoxide anions (O2^•–), was examined using a specific fluorescent probe that emits an orange signal upon interaction with this radical. Ir-H, Ir-Me, and Ir-BN induced the most significant increase in O2^•– levels, with fold changes of 2.4, 3.5, and 3.4, respectively, compared to control cells. […] These findings highlight the diverse mechanisms of ROS generation employed by these compounds, in particular the Ir complexes, which may contribute to their overall photocytotoxic efficacy.
Figure 9 Intracellular ROS generation. PC-3 cells were treated with the indicated complexes and metallopeptides at their respective IC50,light for 4 h, followed by blue light irradiation for 1 h (460 nm, 24.1 J cm^–2). The elevation of general ROS (A) and superoxide anion (B) levels was determined with specific probes by flow cytometry. Bars represent the mean fold increase (±standard deviation) relative to control untreated cells from three independent experiments. * p < 0.05; ** p < 0.01, *** p < 0.001 compared to control cells.
A similar protocol was followed to evaluate superoxide production using the ROS-ID Superoxide Detection Kit (Enzo Life Sciences) according to the manufacturer’s instructions.

SMILES	intracellular Ru content (PC-3 cells [1])	O2•– levels, fold change versus control cells (PC-3 cells [2])	amount of Ir in cells (PC-3 cells [1])
Cn1c2ccccc2c2ccnc(-c3ccc(/C=C/C(=O)O)cn3)c21.[Cl-].[Cl-].[Ru+2].c1ccc(-c2ccccn2)nc1.c1ccc(-c2ccccn2)nc1 [Ru-H]	0.329 ng per million cells	–	–
CC(C)C[C@H](NC(=O)[C@H](CC(C)C)NC(=O)[C@H](Cc1c[nH]cn1)NC(=O)CNC(=O)[C@@H](NC(=O)[C@H](C)NC(=O)[C@H](Cc1c[nH]c2ccccc12)NC(=O)[C@H](CCC(N)=O)NC(=O)[C@H](CC(N)=O)NC(=O)CNC(=O)[C@H](CC(C)C)NC(=O)[C@H](CCCNC(=N)N)NC(=O)[C@H](CCC(N)=O)NC(=O)/C=C/c1ccc(-c2nccc3c4ccccc4n(C)c23)nc1)C(C)C)C(N)=O [Ir-BN] (X1-QRLGNQWAVGHLL-NH2)	–	3.4 fold	–
COC(=O)/C=C/c1ccc(-c2nccc3c4ccccc4n(C)c23)nc1.[Cl-].[Ir+3].[c-]1ccccc1-c1ccccn1.[c-]1ccccc1-c1ccccn1 [Ir-Me]	–	3.5 fold	266.4 ± 13.9 ng per million cells
Cn1c2ccccc2c2ccnc(-c3ccc(/C=C/C(=O)O)cn3)c21.[Cl-].[Ir+3].[c-]1ccccc1-c1ccccn1.[c-]1ccccc1-c1ccccn1 [Ir-H]	–	2.4 fold	3.1 ± 0.7 ng per million cells
